The record followed here is patent US9156889B2, “Drug transporter permeating blood-brain barrier, peptide and use thereof” (priority 2011, dated 2015).

Data set [1] deals with poliovirus (Mahoney strain). The format is binding.
The subject of data set [2] is poliovirus (Mahoney strain). The class given is binding. This is another data set of the same source.
Data set [3] has as its system poliovirus (Mahoney strain). The format is binding. This is another data set of the same source.
Data set [4] concerns Mouse brain capillary endotherial cells (MBEC) 4.
Data set [5] has the same test system. The source holds these as a separate data set.

Where no end group is shown, it is not given here.

Take “GST-mTfR1 (TQFPPSQSS; not fully specified (N-terminus))”: the “binding to poliovirus: band in western blotting after purification” value in data set [1] was “band was similarly detected”.

Take “SEQ ID NO: 6 (TQFPPSRSS; listed as Homo sapiens)”: in data set [2], the “binding to poliovirus (western blotting after purification)” value was “directly involved with the binding to poliovirus”.

As to “SEQ ID NO: 7 (TQFPPVASS; listed as Homo sapiens)”, the “binding to poliovirus (western blotting after purification)” value in data set [2] was “directly involved with the binding to poliovirus”.

For “SEQ ID NO: 8 (TQFPPVESS; listed as Mus musculus)”, the “binding to poliovirus (western blotting after purification)” value in data set [2] was “directly involved with the binding to poliovirus”.

Consider Strep-mTfR1, for which the “binding to poliovirus: bands in western blotting after purification” value in data set [3] is given as “bands were detected”. Further, the “binding to poliovirus: band in western blotting after purification” value in data set [1] is “band was detected”.

For dextran, in data set [4], the “PS value (permeation rate, permeation activity)” value was found to be 0.20.

fluorescence-labeled transferrin displayed a PS value in data set [5] of 0.33.

transferrin: the “effect on the permeation of poliovirus through the blood-brain barrier” value in data set [4] was “inhibits the permeation of poliovirus”.
